The values that follow come from US6281214A, “Biphenyl derivatives” (Eisai Co., Ltd, priority 1994, dated 2001).

Like-named read-outs stand apart in the source and are kept apart here.

The conditions of data set [1]: background, cited from earlier work; for extrapyramidal syndrome as adverse reaction: D2 receptor antagonists.
A further data set deals with adrenergic α1 receptor. The data set can be described thus: adrenergic α1 receptor binding test ([3H] Prazosin Binding Test). To be noted: 1 nM [3H] Prazosin, rat cortex, room temperature, 60 minutes. Also on record: species or system SD rats. In a few lines:
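Rat (SD, 6-8 weeks) cerebral cortex membranes in 50 mM Tris-HCl pH 7.4 incubated with 1 nM [3H]prazosin for 60 min at room temperature; nonspecific binding defined with phentolamine. IC50 by probit method, converted to Ki using radioligand concentration and Scatchard-derived Kd.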

In the next data set the target is T1, dopamine D2 receptor (Rattus norvegicus, UniProt P61169).
T1 construct: the receptor fraction prepared from the corpus striatum was molten and suspended; from tissue; host or cells: corpus striatum of SD rats (membrane fraction)
The data set can be described thus: dopamine D2 receptor binding test ([3H] Spiperone Binding Test). Also on record: species or system SD rats. Particulars: 1 nM [3H] Spiperone, rat corpus striatum, room temperature, 60 minutes. In a few lines:
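Rat (SD, 6–8 weeks) corpus striatum membranes in 50 mM Krebs-Tris pH 7.4 were incubated with 1 nM [3H]spiperone at room temperature for 60 minutes, with nonspecific binding defined by excess spiperone. IC50 came from probit analysis; Ki was derived using radioligand concentration and Scatchard Kd.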

A further data set has as its target T2, serotonin S2 receptor (Rattus norvegicus, UniProt P14842).
T2 construct: The receptor fraction prepared from the cortex was molten and suspended; from tissue; host or cells: cerebral cortex of SD rats (membrane fraction)
Nature of the data set: serotonin S2 receptor binding test ([3H] Ketanserin Binding Test). To be noted: 1 nM [3H] Ketanserin, rat cortex, 37° C., 15 minutes. The arrangement: species or system SD rats. A digest of the protocol: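 Ki values came from probit IC50s corrected for radioligand concentration and Kd (Scatchard). Binding used 1 nM [3H]ketanserin with SD rat cortex membrane fractions, 15 min at 37 °C in Tris-HCl pH 7.4. Bound radioactivity was measured after GF/B filtration, with methysergide for nonspecific binding.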

The mark [2] stands for this setting: read-out: Ki value, dopamine D2 receptor.

T1 sequence (P61169 whole entry): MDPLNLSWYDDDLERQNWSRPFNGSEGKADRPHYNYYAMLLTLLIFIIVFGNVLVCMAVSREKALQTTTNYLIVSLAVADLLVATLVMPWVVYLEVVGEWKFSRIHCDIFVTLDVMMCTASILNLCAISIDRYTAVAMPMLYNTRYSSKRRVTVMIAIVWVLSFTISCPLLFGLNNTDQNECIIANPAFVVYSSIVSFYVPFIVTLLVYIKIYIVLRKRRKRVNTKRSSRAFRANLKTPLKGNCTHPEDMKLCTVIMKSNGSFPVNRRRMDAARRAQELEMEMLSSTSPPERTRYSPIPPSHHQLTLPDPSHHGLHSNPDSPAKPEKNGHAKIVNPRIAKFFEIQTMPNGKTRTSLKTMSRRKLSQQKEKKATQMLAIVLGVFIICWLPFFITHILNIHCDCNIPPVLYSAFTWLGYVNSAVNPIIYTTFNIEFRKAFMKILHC
T2 sequence (P14842 whole entry): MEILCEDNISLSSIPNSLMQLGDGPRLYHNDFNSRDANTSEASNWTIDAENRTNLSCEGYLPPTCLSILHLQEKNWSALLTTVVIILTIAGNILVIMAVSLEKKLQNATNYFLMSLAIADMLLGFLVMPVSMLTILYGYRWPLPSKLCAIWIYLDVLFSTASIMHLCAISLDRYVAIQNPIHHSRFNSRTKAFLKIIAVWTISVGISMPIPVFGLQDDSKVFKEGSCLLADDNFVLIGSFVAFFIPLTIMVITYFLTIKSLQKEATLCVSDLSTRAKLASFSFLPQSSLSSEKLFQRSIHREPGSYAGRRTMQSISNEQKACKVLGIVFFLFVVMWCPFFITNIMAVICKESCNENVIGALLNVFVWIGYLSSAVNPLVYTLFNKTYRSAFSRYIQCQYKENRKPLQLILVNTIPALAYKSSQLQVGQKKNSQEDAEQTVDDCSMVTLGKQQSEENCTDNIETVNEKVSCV

For the molecule `Cc1nc2n(c(=O)c1CCN1CCC(c3noc4cc(F)ccc34)CC1)CCCC2` [Risperidone, risperidone], the “blood-pressure drop as adverse reaction” value in data set [1] (owing to high α1 blocking activity) is reported as “blood-pressure drop occurs as an adverse reaction”. For the same molecule, in data set [1], the “QTC interval in electrocardiogram” value was “lengthened to induce arrhythmia”.
As for `O=C(CCCN1CCC(O)(c2ccc(Cl)cc2)CC1)c1ccc(F)cc1` [haloperidol], in data set [1], the “extrapyramidal syndrome as adverse reaction” value is “causing extrapyramidal syndrome”.
For the molecule `CCN(CC)CCNC(=O)c1cc(S(C)(=O)=O)ccc1OC` [Tiapride], the “extrapyramidal syndrome as adverse reaction” value in data set [1] is listed as “causing extrapyramidal syndrome”.
For `CCCS(=O)(=O)Nc1cc(N2CCN(CC)CC2)cc(-c2ccccc2C=O)c1Cl` [Example 196, 1-(2-Ethyl)-4-[3-(2-formylphenyl)-4-chloro-5-propanesulfonylamino]phenylpiperazine], the Ki (as a rule, a measure of affinity in units of concentration, obtained from inhibition or displacement) stood at 744 nM at adrenergic α1 receptor, 5.52 nM at dopamine D2 receptor (setting [2]) and 13.2 nM at serotonin S2 receptor.
For the molecule `CCN1CCN(c2ccc(OC)c(-c3ccccc3)c2)CC1` [Example 57, 1-Ethyl-4-(3-phenyl-4-methoxy)phenylpiperazine], the Ki at adrenergic α1 receptor, on dopamine D2 receptor (setting [2]) and on serotonin S2 receptor was over 1000 nM each time.
Regarding `CCCS(=O)(=O)Nc1cc(N2CCN(CC)CC2)cc(-c2ccccc2)c1Cl` [Example 184, 1-Ethyl-4-(3-phenyl-4-chloro-5-propanesulfonylamino)phenylpiperazine], the figures for the Ki at adrenergic α1 receptor, at dopamine D2 receptor (setting [2]) and on serotonin S2 receptor were 4.52 nM, 0.17 nM and 2.09 nM, respectively.
For the molecule `CCC(F)c1cc(N2CCN(C)CC2)cc(-c2ccccc2C#N)c1Cl` (stereo not shown) [Example 20, 1-Methyl-4-[3-(2-cyanophenyl)-4-chloro-5-(1-fluoropropyl)]phenylpiperazine], the Ki was 314 nM at adrenergic α1 receptor, 2.82 nM on dopamine D2 receptor (setting [2]) and 6.11 nM at serotonin S2 receptor.
For `CCCc1cc(N2CCN(CCF)CC2)cc(-c2ccc(F)cc2)c1OC` [Example 72, 1-(2-Fluoroethyl)-4-[3-(4-fluorophenyl)-4-methoxy-5-propyl]phenylpiperazine], the Ki at adrenergic α1 receptor amounted to 270 nM; on dopamine D2 receptor (Ki value, dopamine D2 receptor) it was 50.3 nM; at serotonin S2 receptor, 108 nM.
As to `CCCc1cc(N2CCN(CC)CC2)cc(-c2ccc(OC)cc2)c1OC` [Example 73, 1-Ethyl-4-[3-(4-methoxphenyl)-4-methoxy-5-propyl]phenylpiperazine], the Ki amounted to 332 nM on adrenergic α1 receptor, 577 nM at dopamine D2 receptor (setting [2]) and 635 nM on serotonin S2 receptor.
As for `CCN1CCN(c2cc(COCc3ccccc3)c(Cl)c(-c3ccccc3C)c2)CC1` [Example 167, 1-Ethyl-4-[3-(2-tolyl)-4-chloro-5-benzyloxymethyl]phenylpiperazine], the Ki was over 1000 nM on adrenergic α1 receptor, 45.4 nM on dopamine D2 receptor (setting [2]) and 23.8 nM at serotonin S2 receptor.
The matching figures for `CCCNc1cc(N2CCN(CC)CC2)cc(-c2ccccc2)c1OC` [Example 117, 1-Ethyl-4-(3-phenyl-4-methoxy-5-propylamino)phenylpiperazine]: 334 nM, 49.6 nM and 148 nM.
For the molecule `CCN1CCN(c2cc(-c3ccccc3)c(OC)c(C(F)(F)CC)c2)CC1` [Example 186, 1-Ethyl-4-[3-phenyl-4-methoxy-5-(1,1-difluoropropyl)]phenylpiperazine], the Ki at adrenergic α1 receptor is over 1000 nM; at dopamine D2 receptor (setting [2]) it was 2.96 nM; on serotonin S2 receptor, 4.29 nM.
In the case of `CCC(F)c1cc(N2CCN(CC)CC2)cc(-c2ccc(F)cc2F)c1Cl` (stereo not shown) [Example 144, 1-Ethyl-4-[3-(2,4-difluorophenyl)-4-chloro-5-(1-fluoropropyl)]phenylpiperazine], the Ki on adrenergic α1 receptor is 67.4 nM; at dopamine D2 receptor (setting [2]), 0.81 nM; at serotonin S2 receptor, 15.7 nM.
Taken in the same sequence, the figures for `CCC(F)c1cc(N2CCN(CCO)CC2)cc(-c2ccccc2C)c1Cl` (stereo not shown) [Example 26, 1-(2-Hydroxyethyl)-4-[3-(2-tolyl)-4-chloro-5-(1-fluloropropyl)]phenylpiperazine] were over 1000 nM, 2.67 nM and 21.6 nM.
As to `CCC(F)c1cc(N2CCN(CC)CC2)cc(-c2ccccc2OC)c1Cl` (stereo not shown) [Example 143, 1-Ethyl-4-[3-(2-methoxyphenyl)-4-chloro-5-(1-fluoropropyl)]phenylpiperazine], the Ki on adrenergic α1 receptor is over 1000 nM; on dopamine D2 receptor (setting [2]), 16.9 nM; at serotonin S2 receptor, 156 nM.
Turning to `CCN1CCN(c2cc(-c3ccccc3)c(OC)c([S+]([O-])Cc3ccccc3)c2)CC1` (stereo not shown) [Example 119, 1-Ethyl-4-(3-phenyl-4-methoxy-5-benzylsulfinyl)phenylpiperazine], the Ki on adrenergic α1 receptor was over 1000 nM; at dopamine D2 receptor (setting [2]), 35.8 nM; on serotonin S2 receptor, 34.9 nM.
Taken in the same sequence, the figures for `CCN1CCN(c2cc(C(=O)Cc3ccc(F)cc3)c(OC)c(-c3ccccc3)c2)CC1` [Example 93, 1-Ethyl-4-[3-phenyl-4-methoxy-5-(4-fluorophenyl)acetyl]phenylpiperazine] were 719 nM, 28 nM and 1.31 nM.
With `CCCC(F)c1cc(N2CCN(CC)CC2)cc(-c2ccccc2Cl)c1Cl` (stereo not shown) [Example 54, 1-Ethyl-4-[3-(2-chlorophenyl)-4-chloro-5-(1-fluorobutyl)]phenylpiperazine], the Ki on adrenergic α1 receptor is over 1000 nM; at dopamine D2 receptor (setting [2]), 6.06 nM; at serotonin S2 receptor it was 37.5 nM.
Consider `CCCOCc1cc(N2CCN(CC)CC2)cc(-c2ccccc2C)c1Cl` [Example 168, 1-Ethyl-4-[3-(2-tolyl)-4-chloro-5-propoxymethyl]phenylpiperazine], for which the Ki at adrenergic α1 receptor was over 1000 nM; on dopamine D2 receptor (setting [2]) it was 31.9 nM; on serotonin S2 receptor, 180 nM.
As to `CCN1CCN(c2cc(-c3ccccc3)c(OC(C)C)c(-c3ccccc3)c2)CC1` [Example 60, 1-Ethyl-4-(3,5-diphenyl-4-isopropxy)phenylpiperazine], the Ki on adrenergic α1 receptor, at dopamine D2 receptor (setting [2]) and at serotonin S2 receptor was over 1000 nM in each case.
On to `CCC(F)c1cc(N2CCN(CC)CC2)cc(-c2ccc(F)cc2C)c1Cl` (stereo not shown) [Example 142, 1-Ethyl-4-{3-[2-(4-fluorotolyl)]-4-chloro-5-(1-fluoropropyl)}phenylpiperazine], for which the values for the Ki on adrenergic α1 receptor, at dopamine D2 receptor (setting [2]) and at serotonin S2 receptor were 653 nM, 1.77 nM and 20.5 nM, respectively.
For the molecule `CCCC(F)c1cc(N2CCN(CC)CC2)cc(-c2ccccc2C)c1F` (stereo not shown) [Example 50, 1-Ethyl-4-[3-(2-tolyl)-4-fluoro-5-(1-fluorobutyl)]phenylpiperazine], the Ki was over 1000 nM at adrenergic α1 receptor, 9.14 nM on dopamine D2 receptor (setting [2]) and 17.7 nM on serotonin S2 receptor.
In the case of `CCN1CCN(c2cc(CCl)c(OC)c(-c3ccccc3)c2)CC1` [Example 45, 1-Ethyl-4-(3-phenyl-4-methoxy-5-chloromelthy)phenylpiperazine], the Ki amounted to 183 nM on adrenergic α1 receptor; 26.9 nM at dopamine D2 receptor (Ki value, dopamine D2 receptor); 192 nM at serotonin S2 receptor.
Regarding `CCC(F)c1cc(-c2ccccc2)cc(N2CCN(CC)CC2)c1` (stereo not shown) [Example 129, 1-Ethyl-4-[3-phenyl-5-(1-fluoropropyl)]phenylpiperazine], the Ki was determined as 39.8 nM at adrenergic α1 receptor; 1.86 nM on dopamine D2 receptor (Ki value, dopamine D2 receptor); 34.9 nM at serotonin S2 receptor.
Turning to `CCS(=O)(=O)Nc1cc(N2CCN(C)CC2)cc(-c2ccccc2Cl)c1Cl` [Example 34, 1-Methyl-4-[3-(2-chlorophenyl)-4-chloro-5-ethanesulfonylamino]phenylpiperazine], the Ki at adrenergic α1 receptor turned out to be 25.8 nM; on dopamine D2 receptor (setting [2]), 0.37 nM; on serotonin S2 receptor it was 7.77 nM.
Turning to `CCC(F)c1cc(N2CCN(CC)CC2)cc(-c2ccccc2Cl)c1Cl` (stereo not shown) [Example 24, 1-Ethyl-4-[3-(2-chlorophonyl)-4-chloro-5-(1-fluoropropyl)]phenylpiperazine], the Ki came to 537 nM on adrenergic α1 receptor, 3.6 nM at dopamine D2 receptor (setting [2]) and 40.9 nM on serotonin S2 receptor.
`CCCc1cc(-c2ccccc2)cc(N2CCN(CC)CC2)c1OC` [Example 113, 1-Ethyl-4-(3-phenyl-5-propyl-6-methoxy)phenylpiperazine hyrochloroide]: the Ki on adrenergic α1 receptor was determined as 28.9 nM; at dopamine D2 receptor (setting [2]) it was 8.73 nM; on serotonin S2 receptor, 21.1 nM.
Regarding `CCCCS(=O)(=O)c1cc(N2CCN(CC)CC2)cc(-c2ccccc2)c1OC` [Example 171, 1-Ethyl-4-(3-phenyl-4-methoxy-5-butanesulfonyl)phenylpiperazine], the Ki is over 1000 nM on adrenergic α1 receptor, 86.7 nM at dopamine D2 receptor (setting [2]) and 2.74 nM at serotonin S2 receptor.
